Like-named read-outs stand apart in the source and are kept apart here.
What was measured:
[1] = Solubility in deionized water @ 25° C.; format: physicochemical
Procedure: (§1) The physiochemical properties of Examples 1-6 and their ability to behave as pro-drugs and release in vivo the parent drug (the desired COX-2 inhibitor 5(S)-ethyl-3-isopropoxy-4-(4-methanesulfonylphenyl)-5-methyl-5H-furan-2-one) were examined. […] To ascertain the rates of conversion of the pro-drugs in vivo, the compounds were dosed as a saline solution of the salt form (except for 1, which was dosed in a PEG-400 solution) in Sprague-Dawley rats at 2 mg/kg intravenously. Plasma levels were measured for levels of the respective pro-drug and the desired COX-2 inhibitor at 5, 15, 30, and 60 min time points. The plasma levels measured at 30 minutes are given below (Table 1).

[2] = Plasma levels of pro-drug and desired COX-2 inhibitor after i.v. dosing in Sprague-Dawley rats; format: in vivo; conditions: for Pharmacokinetic characteristics / In vivo conversion to parent drug in plasma / Levels of pro-drug in vivo: 2 mg/kg i.v.; for Pharmacokinetic characteristics / concentration at 30 min / In vivo conversion to parent drug in plasma: rat; for concentration at 30 min: iv, plasma, 2 mg/kg i.v. dose of pro-drug, Sprague-Dawley rats, value @ 30 min, read-out: Levels of Pro-Drug @ 0.5 hr; for In vivo conversion to parent drug in plasma: plasma at 30 min; for Levels of pro-drug in vivo: rat model
Procedure: as §1

[3] = Stability of 4 mg/mL solution in water, judged @ 24 hr by LC-MS/HPLC; format: physicochemical; conditions: after 24 hr in water, HPLC analysis
Procedure: as §1

[4] = background statement; cited from earlier work
[5] = test system: infarct volume; conditions: MCAO stroke model; cited from earlier work
[6] = deionized water, 25 °C, water, read-out: Solubility
[7] = saline solution of the salt form

solubility [1, 6] [µg/mL]	Pharmacokinetic characteristics [2]	Compound	In vivo conversion to parent drug in plasma [2]	other results
< 1000	superior pharmacokinetic characteristics	CC[C@]1(C)OC2(OCC(CO)O2)C(OC(C)C)=C1c1ccc(S(C)(=O)=O)cc1 (stereo partly drawn) [Example 1, {(7S)-7-ethyl-9-isopropoxy-7-methyl-8-[4-(methylsulfonyl)phenyl]-1,4,6-trioxaspiro[4.4]non-8-en-2-yl}methanol]	converted to yield appreciable levels of the parent drug	solubility [1]: <1000 µg/mL; concentration at 30 min ([2]; dosed in PEG-400 solution): 1400 nM
2000	superior pharmacokinetic characteristics	CC[C@]1(C)OC2(OCC(COC(=O)CCC(=O)[O-])O2)C(OC(C)C)=C1c1ccc(S(C)(=O)=O)cc1.[Na+] (stereo partly drawn) [Example 2, Sodium 4-({(7S)-7-ethyl-9-isopropoxy-7-methyl-8-[4-(methylsulfonyl)phenyl]-1,4,6-trioxaspiro[4.4]non-8-en-2-yl}methoxy)-4-oxobutanoate]	converted to yield appreciable levels of the parent drug	concentration at 30 min [2, 7]: < 100 nM

The next lines start with the compound.

Compound	solubility [1, 6] [µg/mL]	Pharmacokinetic characteristics [2]	In vivo conversion to parent drug in plasma [2]	other results
CC[C@]1(C)OC2(OCC(COP(=O)([O-])OCC[N+](C)(C)C)O2)C(OC(C)C)=C1c1ccc(S(C)(=O)=O)cc1 (stereo in doubt) [Example 3, 2-{[({(2R,7S)-7-ethyl-9-isopropoxy-7-methyl-8-[4-(methylsulfonyl)phenyl]-1,4,6-trioxaspiro[4.4]non-8-en-2-yl}methoxy)(hydroxy)phosphoryl]oxy}-N,N,N-trimethylethanaminium]	> 10000	superior pharmacokinetic characteristics		solubility [1]: >20000 µg/mL; concentration at 30 min [2, 7]: 200 nM
CC[C@]1(C)O/C(=N\[C@@H](CO)C(=O)[O-])C(OC(C)C)=C1c1ccc(S(C)(=O)=O)cc1.[K+] [Example 4, N-[(5S)-5-ethyl-3-isopropoxy-5-methyl-4-[4-(methylsulfonyl)phenyl]furan-2(5H)-ylidene]-L-serine potassium salt]	> 10000		failed to give appreciable amounts of the parent drug	solubility ([1]; potassium salt): >20000 µg/mL; Levels of pro-drug in vivo [2]: dropped rapidly
CC[C@@]1(C)OC2(OC[C@@H]([C@H]3OC(=O)C(O)=C3[O-])O2)C(OC(C)C)=C1c1ccc(S(C)(=O)=O)cc1.[Na+] (stereo partly drawn) [Example 5]	> 10000	superior pharmacokinetic characteristics		solubility ([1]; monosodium salt): >20000 µg/mL; Stability in solution [3]: rapid decomposition
CC[C@]1(C)O/C(=N\OCC(=O)[O-])C(OC(C)C)=C1c1ccc(S(C)(=O)=O)cc1.[Na+] [Example 6, [[[(5S)-5-ethyl-5-methyl-3-(1-methylethoxy)-4-[4-(methylsulfonyl)phenyl]-2(5H)-furanylidene]amino]oxy]acetic acid sodium salt]	> 10000		failed to give appreciable amounts of the parent drug	solubility ([1]; sodium salt): 10000 µg/mL; Levels of pro-drug in vivo [2]: dropped rapidly
CC[C@]1(C)OC(=O)C(OC(C)C)=C1c1ccc(S(C)(=O)=O)cc1 [parent drug, 5(S)-ethyl-3-isopropoxy-4-(4-methanesulfonylphenyl)-5-methyl-5H-furan-2-one]				Water solubility [4]: poor water solubility; Infarct volume [5]: reduction in infarct volume

From patent US20060189682A1, “Water soluble prodrugs of COX-2 inhibitors” (priority 2005, published 2006)
